Measurements: US20100204130A1, “USE OF HUMAN NEUROPEPTIDE AS A THERAPEUTIC AGENT” (priority 2007, published 2010)
Where a SMILES comes first, the peptide text is derived from it.

Assays:
[1] = test system: HIV-1IIIB; assay: HIV-1 antiviral assay (CPE reduction, MTS); format: cell-based; conditions: peptide 10 micrograms per ml, 6 days post-infection
[2] = test system: hepatitis B virus (HBV) ayw strain; assay: HBV replication assay in HepG2-2.2.15 cells (TaqMan PCR of secreted HBV DNA); format: cell-based; conditions: test peptide 10 micrograms per ml, six days, HBV DNA by TaqMan PCR
[3] = Cytotoxicity in HBV assay (dye uptake cell viability); format: cell-based; conditions: human, HepG2-2.2.15 cells, test peptide 10 micrograms per ml
[4] = test system: HCMV strain AD169; assay: HCMV plaque reduction assay in MRC-5 cells; format: cell-based; conditions: HCMV AD169 in MRC-5 cells; peptide 10 micrograms per ml; 7-10 days
Text: Ganciclovir was used as positive control.

[5] = test system: MRSA; assay: Methicillin Resistant Staphylococcus Aureus (MRSA) assay; format: cell-based; conditions: MRSA growth; peptide 10 micrograms per ml; read visually
[6] = test system: Pseudomonas aeruginosa; assay: Pseudomonas aeruginosa assay; format: cell-based; conditions: Pseudomonas aeruginosa growth; peptide 10 micrograms per ml; read visually
[7] = test system: Streptococcus pneumoniae; assay: Streptococcus pneumoniae assay; format: cell-based; conditions: Streptococcus pneumoniae growth; peptide 10 micrograms per ml; read visually
[8] = test system: A549 cells; assay: Propidium iodide cell cycle assay; format: cell-based, human; conditions: test peptide 10 micrograms per ml, 24 hours, FACS
Text: Human A549 cells (carcinomic human alveolar basal epithelial cells) were utilized in the experiments employing the Propidium iodide cell cycle assay. The eukaryotic cell cycle is a series of events that take place in a cell leading to its replication. The regulation of the cell cycle involves steps crucial to the cell, including detecting and repairing genetic damage, and provision of various checks to prevent uncontrolled cell division. The molecular events that control the cell cycle are ordered and directional; that is, each process occurs in a sequential fashion. The cell cycle consists of four distinct phases: G1 phase, S phase, G2 phase (collectively known as interphase) and M phase. M phase is itself composed of two tightly coupled processes: mitosis, in which the cell's chromosomes are divided between the two daughter cells, and cytokinesis, in which the cell's cytoplasm divides forming distinct cells. Activation of each phase is dependent on the proper progression and completion of the previous one. Cells that have temporarily or reversibly stopped dividing are said to have entered a state of quiescence called Go phase. The relatively brief M phase consists of nuclear division and cytoplasmic division. The first phase within interphase, from the end of the previous M phase till the beginning of DNA synthesis is called G1 (G indicating gap or growth). During this phase the biosynthetic activities of the cell resume at a high rate. This phase is marked by synthesis of various enzymes that are required in S phase, mainly those needed for DNA replication. The ensuing S phase starts when DNA synthesis commences; when it is complete, all of the chromosomes have been replicated. The cell then enters the G2 phase, which lasts until the cell enters mitosis. Significant protein synthesis occurs during this phase, mainly involving the production of microtubules, which are required during the process of mitosis. […]
Propidium iodide is an intercalating agent and a fluorescent molecule that can be used to stain DNA. […] After incubation for 40 min at 37° C., cells were analyzed in the FACS.

[9] = test system: Human Peripheral Blood Mononuclear Cells (PBMC); assay: T cell proliferation assay (PHA, 3H-thymidine); format: cell-based; conditions: test peptide 10 micrograms per ml
Description: (§1) Human Peripheral Blood Mononuclear Cells (PBMC) were obtained from normal human donors. The T cell proliferation was induced by stimulation of the cells with the T cell mitogen phytohemagglutinin (PHA), either in the absence (positive proliferation control), or in the presence of test peptide—10 micrograms per ml—to examine their effects on the T cell proliferating response. 10^5/well PBMC were plated in 96-well microtiter plates and assayed in duplicate with the peptide. Cell cultures were incubated at 37° C. for 3 days in a 5% CO2 incubator and were thereafter pulsed with 1 microCi/well ^3H-thymidine for additional 12 hours of culture. At the end of incubation time, the plates were harvested and the cells counted by liquid scintillation for the incorporation of ^3H-thymidine as a measure of T cell proliferation.

[10] = test system: Human Peripheral Blood Mononuclear Cells (PBMC); assay: B cell proliferation assay (SAC plus Interleukin-2, 3H-thymidine); format: cell-based; conditions: test peptide 10 micrograms per ml
Description: as §1, with “The B” for “The T”, “the B” for “the T”, “mitogen Staphylococcus aureus Cowans I (SAC) plus Interleukin-2,” for “mitogen phytohemagglutinin (PHA),”, “cell” for “cell proliferating”, “of B” for “of T”

[11] = test system: RAW 264.7 cells; assay: Phagocytosis assay (Fluorescein-labeled Escherichia coli); format: cell-based, mouse; conditions: test peptide 10 micrograms per ml, flow cytometry
[12] = test system: Tumor Necrosis Factor-α (TNF-α); assay: Th1/Th2 cytokine profiling assay: TNF-α; format: cell-based, Balb/c mice; conditions: Ovalbumin-restimulated spleen cells; test peptide 10 micrograms per ml; 72 hours
Text: (§2) The Balb/c mice (originated in 1923, it is a popular strain and is used in many different research disciplines. Also classified as an inbred from the production of 20 or more successive brother-sister matings, the Balb/c mouse is albino and small in size) were immunized on Days 1, 15, and 29 with Ovalbumin (Ovalbumin is the main protein found in egg white, commonly used to stimulate an immunological reaction in test animals) in PBS (5 micrograms/injection). On day 50, spleens of the mice were harvested (3 weeks after last boost with Ovalbumin). Cells were cultured (2×10^5/well in triplicate) and incubated with culture medium or test peptide—10 micrograms per ml—for 30 min. Thereafter, additional Ovalbumin was added to the cells at 10 micrograms/ml for in vitro restimulation of the cells. 72 hours later, cell supernatants were harvested and assayed using the Becton Dickinson Mouse Th1/Th2 Cytokine CBA Kit. This kit can be used to measure Interleukin-2 (IL-2), Interleukin-4 (IL-4), Interleukin-5 (IL-5), Interferon-γ (IFN-γ), and Tumor Necrosis Factor-α (TNF-α) protein levels in a single sample. The kit performance has been optimized for analysis of physiologically relevant concentrations ([…] levels) of specific cytokine proteins in tissue culture supernatants and serum samples.

[13] = test system: Interferon-γ (IFN-γ); assay: Th1/Th2 cytokine profiling assay: IFN-γ; format: cell-based, Balb/c mice; conditions: Ovalbumin-restimulated spleen cells; test peptide 10 micrograms per ml; 72 hours
Text: as §2

[14] = test system: Interleukin-2 (IL-2); assay: Th1/Th2 cytokine profiling assay: IL-2; format: cell-based, Balb/c mice; conditions: Ovalbumin-restimulated spleen cells; test peptide 10 micrograms per ml; 72 hours
Text: as §2

[15] = test system: Interleukin-4 (IL-4); assay: Th1/Th2 cytokine profiling assay: IL-4; format: cell-based, Balb/c mice; conditions: Ovalbumin-restimulated spleen cells; test peptide 10 micrograms per ml; 72 hours
Text: as §2

[16] = test system: Interleukin-5 (IL-5); assay: Th1/Th2 cytokine profiling assay: IL-5; format: cell-based, Balb/c mice; conditions: Ovalbumin-restimulated spleen cells; test peptide 10 micrograms per ml; 72 hours
Text: as §2

[17] = test system: TNF alpha; assay: TNF alpha production assay (LPS-stimulated macrophages, ELISA); format: cell-based; conditions: human macrophages, test peptide 10 micrograms per ml, lipopolysaccharide 200 ng/ml, overnight
Description: Human Peripheral Blood Mononuclear Cells (PBMC) were obtained from normal human donors. The macrophages were prepared by adherence of PBMC to the plastic wells of the plates. After 8 days in culture in the presence of recombinant human macrophage-colony stimulating factor at 2 ng/ml, differentiated macrophages were preincubated with test peptide—10 micrograms per ml—for 30 min, followed by in-well stimulation by the addition of lipopolysaccharide at a final concentration of 200 ng/ml. Not stimulated macrophages served as negative background control.
After overnight incubation, supernatants from the control and LPS-stimulated cultures were harvested and assayed for TNF alpha production employing a TNF alpha specific ELISA.

[18] = test system: Primary Human endothelial cells (HUVEC); assay: Endothelial cell migration assay; format: cell-based; conditions: test peptide 10 micrograms per ml, 22 hours
Description: Endothelial cell migration is a prerequisite for the process of neo-vascularization or angiogenesis which is crucial for on-site recruitment of blood vessel formation. Primary Human endothelial cells (HUVEC) were seeded in insert chambers with 3 micrometer pore size of multi-transwell plate for 6 hours at 37° C. in Endothelial Cell Basal Medium (EBM) supplemented with 0.1% bovine serum albumin. Thereafter, designated concentration of test peptide—10 micrograms per ml—was added in duplicate wells. The endothelia were allowed to migrate for 22 hours at 37° C., then, migrated cells were fixed and stained with Hoechst 33342 dye. Images of 3 fields per insert were taken and the number of migrated cells per field were quantified using the ImageProPlus software. Data were analyzed for the average number of the migrated cells and standard deviation of six data points for each treatment condition. Active test peptide against HUVEC migration was determined based on 50% inhibition of migrated cells as compared with the control. Statistic p values were computed using the Student's t-test.

[19] = test system: HUVEC; assay: Endothelial tube formation assay; format: cell-based, human; conditions: test peptide 10 micrograms per ml, 20 hours
Description: The endothelial tube formation assay is based on the ability of endothelial cells to form three-dimensional capillary-like tubular structures when cultured on a gel of basement membrane extract. The endothelial tube formation assay represents a powerful model for studying inhibition and induction of angiogenesis. Pre-labeled HUVEC with Calcein AM were seeded in a 96-well culture plate coated with extracellular metrix (Chemicon international Cat. ECM625) and treated with test peptide—10 micrograms per ml—in full growth medium. […] control was vehicle only. The endothelial cells were allowed to form tubes for 20 hours and were then examined under an inverted fluorescent microscope. Duplicate wells for each treatment were photographed and quantitatively analyzed for an average tubule length using image analysis software ImageProPlus. Raw data were expressed as average tubule lengths in pixels ±standard deviation. Statistic p values were computed using the Student's t-test.

[20] = Cytotoxicity in HIV-1 assay (MTS cell viability); conditions: human, CEM-SS cells
[21] = Cytotoxicity in HCMV assay (CellTiter 96 cell viability); conditions: human, MRC-5 cells (embryonal lung fibroblasts)

Cc1cn([C@H]2C[C@H](N=[N+]=[N-])[C@@H](CO)O2)c(=O)[nH]c1=O [AZT]
% CPE reduction in HIV-1 infected CEM-SS cells [1]: 99%

CC(C)(C)NC(=O)[C@@H]1CN(Cc2cccnc2)CCN1C[C@@H](O)C[C@@H](Cc1ccccc1)C(=O)N[C@H]1c2ccccc2C[C@H]1O [Indinavir]
% CPE reduction in HIV-1 infected CEM-SS cells [1]: 100%

CC(C)C[C@H](NC(=O)CNC(=O)[C@H](CCC(=O)O)NC(=O)CNC(=O)[C@H](C)N)C(=O)N[C@@H](CC(N)=O)C(=O)N[C@@H](CO)C(=O)N[C@@H](CCC(N)=O)C(=O)N[C@@H](Cc1ccccc1)C(=O)N[C@@H](Cc1c[nH]c2ccccc12)C(=O)N[C@@H](CO)C(=O)N[C@@H](CC(C)C)C(=O)N[C@@H](C)C(=O)N[C@@H](C)C(=O)N1CCC[C@H]1C(=O)N[C@@H](CCC(N)=O)C(=O)N[C@@H](CCCNC(=N)N)C(=O)N[C@@H](Cc1ccccc1)C(N)=O [Neuropeptide AF, Ala-Gly-Glu-Gly-Leu-Asn-Ser-Gln-Phe-Trp-Ser-Leu-Ala-Ala-Pro-Gln-Arg-Phe-NH2] (H-AGEGLNSQFWSLAAPQRF-NH2)
% CPE reduction in HIV-1 infected CEM-SS cells [1]: 0.0%
% inhibition of HBV replication in HEP G2 cells [2]: 42.6%
viability at 144 h, 10 micrograms per ml [3]: 100%
% plaque reduction [4]: 6.9%
% inhibition [5]: 0.0%
% inhibition [6]: 0.0%
% inhibition [7]: 0.0%
Cell cycle analysis G0/G1 [8]: 55.5
Cell cycle analysis G2/M [8]: 10.0
Cell cycle analysis S [8]: 34.5
% of PHA induced control [9]: 103.8%
% of SAC/IL2 induced control [10]: 105.7%
% of control phagocytosis [11]: 105.9%
TNF-a spleen cells; TH1 response (% of control) [12]: 92.1 % of control
IFNγ spleen cells; TH1 response (% of control) [13]: 84.8 % of control
IL-2 spleen cells (% of control) [14]: 0.0 % of control
IL-4 spleen cells; TH2 response (% of control) [15]: 0.0 % of control
IL-5 spleen cells; TH2 response (% of control) [16]: 52.2 % of control
% of LPS induction [17]: 104.7%
% inhibition of migration [18]: −4%
% inhibition of tube formation [19]: −9%
viability at 10 micrograms per ml [20]: 81.6%
viability at 144 h [21]: 100%
